Reference: patent US8603502B2, “Compositions comprising jasmonic acid derivatives and use of these derivatives” (L'Oreal S.A., priority 2002, dated 2013)

Assays:
Type in all cases: cell-based
isolated stratum corneum [1] = test: Keratolytic power, Test 2: counting corneocytes released from isolated stratum corneum, comparison with jasmonic acid; details: 1% by weight solution in PBS + 0.1% Triton X100, pH 7.4; 37° C., 24 hours
Method: (§1) The keratolytic power of a number of compounds of this disclosure was studied. This test comprises counting corneocytes released following incubation of patches of isolated stratum corneum in the presence of the test compounds.
(§2) Stratum corneum isolated by trypsin/heat from surgical plasties was used. A number of different stratum corneum samples were used. Discs of 4 mm in diameter were punched out and placed at the bottom of a 96-well plate.
A 1% by weight solution of the compound of Example 1, or jasmonic acid (comparison), was prepared in a PBS buffer supplemented with 0.1% of Triton X100. The pH of the solution was adjusted to 7.4.
(§3) 50 microliters of test solution or of control solution (PBS buffer supplemented with 0.1% of Triton X100) were added to each well. Incubation was carried out at 37° C. with stirring for 24 hours.
(§4) 10 microliters of solution were then withdrawn and were placed in a Malassez cell. The liberated corneocytes were counted under the microscope.
The results obtained are as follows, expressed as the number of liberated corneocytes per microliter, averaged over three tests. Corneocyte fragments are not counted.

isolated stratum corneum [2] = test: Keratolytic power, Test 1: counting corneocytes released after incubating patches of isolated stratum corneum with the test compound; details: 1% by weight solution in PBS + 0.1% Triton X100, pH 7.4, 37° C., 24 hours
Method: as §1, §2
A 1% by weight solution of the compound of Example 3 was prepared in a PBS buffer supplemented with 0.1% of Triton X100. The pH of the solution was adjusted to 7.4.
as §3, §4
The results obtained are as follows, expressed as the number of liberated corneocytes per microliter, averaged over three tests. Corneocyte fragments were not counted.

isolated stratum corneum [3] = test: Keratolytic power, Test 3: counting corneocytes released from isolated stratum corneum, PEG 8/ethanol vehicle; details: 2% by weight solution in water with 50% PEG 8 and 30% ethanol, 37° C., 24 hours; for number of liberated corneocytes per microliter, Sample 1: Sample 1, average over three tests; for number of liberated corneocytes per microliter, Sample 2: Sample 2, average over three tests; for number of liberated corneocytes per microliter, Average: average of Samples 1-2
Method: as §1, §2
A 2% by weight solution of the compound of Example 3, or 2-hydroxy-4-octanoylbenzoic acid (comparison), was prepared in an aqueous solution containing 50% by weight of polyethylene glycol (PEG 8) and 30% by weight of ethanol.
50 microliters of test solution or of control solution were added to each well. Incubation was carried out at 37° C. with stirring for 24 hours.
10 microliters of solution were then withdrawn and were placed in a Mallassez cell. The liberated corneocytes were counted under the microscope.
The results obtained are as follows, expressed as the number of liberated corneocytes per microliter, averaged over the three tests. Corneocyte fragments were not counted.

SMILES	number of liberated corneocytes per microliter, Average (3 tests per sample, 3 different samples) (isolated stratum corneum [1])	number of liberated corneocytes per microliter, Average (isolated stratum corneum [2]; average of Samples 1-3)	number of liberated corneocytes per microliter, Sample 1 (isolated stratum corneum [2]; stratum corneum Sample 1, average over three tests)	number of liberated corneocytes per microliter, Sample 2 (isolated stratum corneum [2]; stratum corneum Sample 2, average over three tests)	number of liberated corneocytes per microliter, Sample 3 (isolated stratum corneum [2]; stratum corneum Sample 3, average over three tests)	number of liberated corneocytes per microliter, Sample 1 (isolated stratum corneum [3])	number of liberated corneocytes per microliter, Sample 2 (isolated stratum corneum [3])	number of liberated corneocytes per microliter, Average (isolated stratum corneum [3])
CC/C=C\C[C@H]1C(O)CC[C@@H]1CC(=O)O (mixture of isomers) [Example 1, (+/−)(1R,2R)-3-hydroxy-2-[(2Z)-2-pentenyl]cyclopentaneacetic acid]	26 ± 7 per microliter							
CCCCC[C@H]1C(O)CC[C@@H]1CC(=O)O (mixture of isomers) [Example 3, (+/−)(1R,2R)-3-hydroxy-2-pentylcyclopentaneacetic acid]		61 ± 33 per microliter	28 ± 9 per microliter	56 ± 7 per microliter	101 ± 11 per microliter	2 ± 3 per microliter	3 ± 1 per microliter	2.5 ± 2 per microliter
CC/C=C\C[C@H]1C(=O)CC[C@@H]1CC(=O)O (racemic) [Jasmonic acid, (+/−)(1R,2R)-3-oxo-2-[(2Z)-2-pentyl]cyclopentaneacetic acid]	15 ± 5 per microliter							
CCCCCCCC(=O)c1ccc(C(=O)O)c(O)c1 [2-Hydroxy-4-octanoylbenzoic acid, 2-hydroxy-4-octanoylbenzoic acid, reference compound]						3 ± 3 per microliter	4 ± 3 per microliter	3.5 ± 3 per microliter
